# Source: US11357777B2, “Use of sGC stimulators for the treatment of nonalcoholic steatohepatitis (NASH)” (Cyclerion Therapeutics, Inc., priority 2016, dated 2022)
# Test system: mice fed a high-fat diet deficient in choline and methionine
# Experiment: Mouse on a methionine/choline deficient high-fat diet (MCD-HFD)
# Type: in vivo
# Details: for macrophage numbers, inflammatory infiltrate by F4/80 immunohistochemistry: statistically significant; for levels of mRNA expression for all markers of liver fibrosis / levels of mRNA expression for all markers of liver inflammation: vs control Group II
# Procedure: The study was performed in mice fed a high-fat diet deficient in choline and methionine (MCD-HFD or MCD diet), a model that reproduces the clinical manifestations of human steatohepatitis and fibrosis in mice. These mice received the sGC stimulator Compound B prophylactically (at two doses, 1 and 3 mg/kg/day in the food), starting at the same time as the start of the administration of the high-fat diet deficient in choline/methionine, and before animals started manifesting clinical signs of steatohepatitis.
# The prophylactic treatment with Compound B proceeded for a total of 9 weeks simultaneously with the high-fat diet deficient in choline/methionine administration. At the end of the treatment, the degree of inflammation was assessed in the liver by determining levels of gene expression for IL-6, TNFα, IL-10, MCP-1β, IL-1 and IL-Ira, by real-time PCR. Inflammation levels were also determined by assessing inflammatory infiltrate by F4/80 immunohistochemistry, and necroinflammation was assessed by hematoxylin-eosin staining. Liver fibrosis was determined by measuring levels of gene expression for collagen type I and II, MMP-2, TIMP-1 and TGFβ1 at the mRNA level. Histological analysis was carried out of tissue sections stained with Masson's trichrome and Sirius Red.
# Group I (n=5): Chow Control group received a matching sucrose diet equivalent to the high-fat diet (HFD) for 9 weeks.
# Group II (n=15): Choline/methionine deficient HFD Control group (MCD control group) received a Choline/methionine deficient HFD diet for 9 weeks.
# Group III (n=10): Choline/methionine deficient HFD for 9 weeks supplemented with Compound B dosed in food (1 mg/kg body weight/day). (IW1 group)
# Group IV (n=10): Choline/methionine deficient HFD for 9 weeks supplemented with Compound B dosed in food (3 mg/kg body weight/day). (IW3 group)
# After treatment, animals were sacrificed and liver and blood samples were collected. The effects of the sGC stimulator on liver weight, steatosis, inflammation and fibrosis were evaluated as follows:
# Total RNA was obtained with the RNAqueous kit. RNA concentrations were assessed in a UV-spectrophotometer and the RNA's integrity tested on a 6000 LabChip in a 2100 Bioanalyzer (Agilent Technologies, Palo Alto, Calif.). First strand cDNA synthesis was performed by incubating 1 μg of total RNA with 2.5 μl of 10×RT buffer, 1 μl of 25×dNTPs, 2.5 μl of 10× Primers and 1.25 μl of reverse transcriptase (25 μl final volume) for 10 minutes at 25° C. following 2 hours at 37° C. in a ABI thermal cycler. Ready-to-use primer and probe sets pre-developed by Applied Biosystems (TaqMan Gene Expression Assays) were used to quantify gene expression using R-actin as an endogenous control. Briefly, PCR reactions were performed in duplicate using the Universal TaqMan 2×PCR mastermix in a volume of 20 μl containing 1.25 μl cDNA. Real-time quantitative PCR was performed with an ABI Prism 7900 Sequence Detection System (Applied Biosystems) using the fluorescent TaqMan methodology. Real time PCR results were analyzed with the Sequence Detector Software version 2.1 (Applied Biosystems) and relative quantitation of gene expression was performed using the 2-ΔΔ Ct method. (User Bulletin #2; http://docs.appliedbiosystems.com/pebiodocs/04303859.pdf).
# Tissue samples fixed in 10% formalin were embedded in paraffin, cut into 5 μm sections, stained with H&E and analyzed by a registered pathologist unaware of the treatments. Tissue sections were incubated for 10 minutes in 0.5% thiosemicarbazide and stained in 0.1% Sirius Red F3B in saturated picric acid for 1 hour, and subsequently washed with an acetic acid solution (0.5%). Masson's trichrome staining was performed at the Pathology Department of the Hospital Clinic, Barcelona, Spain. […]
# [1] = 3 mg/kg in food, 9 weeks (Group IV) vs control Group II
# [2] = Group III (1 mg/kg/day), 9 weeks
# [3] = Group IV (3 mg/kg/day), 9 weeks
compound,measurement,setting,value
OC(CNc1nc(-c2cc(-c3ccon3)n(Cc3ccccc3F)n2)ncc1F)(C(F)(F)F)C(F)(F)F [Compound B],Total NAS,1 mg/kg (Group III) vs control group II,reduced
same,fibrosis as detected using Picrosirius Red staining,"1 mg/kg in food, 9 weeks (Group III)",significantly reduced
same,Total NAS,3 mg/kg (Group IV) vs control group II,reduced
same,fibrosis as detected using Picrosirius Red staining,"3 mg/kg in food, 9 weeks (Group IV)",significantly reduced
same,liver tissue weight versus total body weight ratio,[1],statistically significant reduction
same,percentage of white adipose tissue in the liver,[1],statistically significant reduction
same,reduction of fibrosis by analysis of trichrome stain and α-SMA deposition,"1 and 3 mg/kg in food, 9 weeks, FIG. 4",confirmed
same,"macrophage numbers, inflammatory infiltrate by F4/80 immunohistochemistry",Group III (1 mg/kg) vs control group II,decrease
same,levels of mRNA expression for all markers of liver fibrosis,[2],reduced in a statistically significant manner
same,levels of mRNA expression for all markers of liver inflammation,[2],reduced in a statistically significant manner
same,"macrophage numbers, inflammatory infiltrate by F4/80 immunohistochemistry",Group IV (3 mg/kg) vs control group II,decrease
same,levels of mRNA expression for all markers of liver fibrosis,[3],reduced in a statistically significant manner
same,levels of mRNA expression for all markers of liver inflammation,[3],reduced in a statistically significant manner
